Patent publication US10934298B2, “Substituted pyrazolo[1,5-a]pyrimidines for the treatment of medical disorders” (BIAL—BioTech Investments, Inc., priority 2016, dated 2021)

Biological target: T1, glucocerebrosidase (Gcase) (Homo sapiens, UniProt P04062)
T1 construct: micellar solution containing 10 nM GCase and 100 nM saposin C
T1 sequence (P04062 40-536): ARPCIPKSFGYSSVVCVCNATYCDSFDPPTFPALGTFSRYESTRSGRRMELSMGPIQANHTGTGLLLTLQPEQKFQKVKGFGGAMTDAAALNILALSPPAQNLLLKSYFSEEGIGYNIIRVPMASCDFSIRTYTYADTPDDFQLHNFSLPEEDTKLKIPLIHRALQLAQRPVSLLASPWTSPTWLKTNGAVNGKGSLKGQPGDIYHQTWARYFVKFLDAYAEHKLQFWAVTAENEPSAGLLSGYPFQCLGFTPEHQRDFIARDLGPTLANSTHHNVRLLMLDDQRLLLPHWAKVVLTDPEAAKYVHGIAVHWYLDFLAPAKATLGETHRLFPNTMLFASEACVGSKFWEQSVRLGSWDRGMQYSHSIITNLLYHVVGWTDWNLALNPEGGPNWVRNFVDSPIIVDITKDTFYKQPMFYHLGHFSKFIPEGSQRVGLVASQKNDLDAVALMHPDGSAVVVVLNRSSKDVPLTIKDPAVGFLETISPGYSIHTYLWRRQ
Assay: Glucocerebrosidase (Gcase) activation assay with 4-methylumbelliferyl-beta-D-glucopyranoside substrate, saposin C and phosphatidylserine/triton micelles, fluorescence readout
Type: biochemical
Procedure: The ability of exemplary compounds to activate glucocerebrosidase (Gcase) was measured.
A 484 μL aliquot of a 1.0 mg/mL solution of phosphatidylserine (PS) (Sigma P7769) in chloroform was evaporated under a stream of nitrogen for 1 hour. The lipid film was dissolved over 4 minutes of vigorous vortexing in 40 mL of 176 mM K2HPO4/50 mM citric acid (pH 4.7) containing 7.5 μL of triton X-100, resulting in a mixed micellar preparation with a composition of 0.32 mM triton and 0.37 mol % PS. 4-Methylumbelliferyl-beta-D-glucopyranoside (ACROS-337025000) was dissolved in the micellar solution to a final concentration of 2 mM for use as the reaction substrate.
Test compounds were diluted to the desired concentrations with dimethylsulfoxide (DMSO) from 10 mM stocks, and 0.41 μL of the DMSO compound mixture was added to 100 μL of micellar solution containing 10 nM GCase and 100 nM saposin C (Enzo ALX-201-262-C050). Pre-incubation was allowed to occur for 30 minutes at room temperature, after which the reaction was initiated by combining 25 μL of substrate solution with 25 μL of compound/GCase/saposin mixture. The reaction proceeded for 15 minutes at room temperature and was stopped by adding 150 μL of 1M glycine, pH 12.5. The endpoint of the reaction was monitored by measuring fluorescence intensity (excitation: 365 nm; emission: 440 nm) on a SpectraMax i3 instrument (Molecular Devices). Test compounds were screened at 1.0 and 0.1 μM final concentration, and subsequent 8-point dose response curves were obtained using 3-fold dilutions from a maximum final concentration of 5 μM.

Percent Gcase Activation, 0.1 μM Test Compound (0.1 μM test compound) | Percent Gcase Activation, 1 μM Test Compound (1 μM test compound) | Percent Gcase Activation, 0.1 μM Test Compound (test compound at 0.1 μM) | Percent Gcase Activation, 1 μM Test Compound (test compound at 1.0 μM) | Structure (SMILES) | further results
– | – | – | – | CCc1cc(-c2ccccn2)n2ncc(C(=O)NC(C)C3CC3)c2n1 (centres unmarked) [III-48] | Percent Gcase Activation, 0.1 μM Test Compound (0.1 μM test compound, Table 3A): * (less than 10% Gcase activation); Percent Gcase Activation, 1 μM Test Compound (1 μM test compound, Table 3A): ++ (Gcase activation in the range of 30% up to 60%)
*** (greater than 20% Gcase activation) | +++ (Gcase activation greater than 60%) | – | – | Cc1cc(-c2cccc(-c3ncco3)c2)nc2c(C(=O)NC(C3CC3)C(F)(F)F)cnn12 (centres unmarked) [III-416] | –
– | – | *** (greater than 20% Gcase activation) | +++ (Gcase activation greater than 60%) | Cc1cc(-c2ccon2)nc2c(C(=O)N[C@@H](C3CC3)C(F)(F)F)cnn12 [III-241] | –
*** (greater than 20% Gcase activation) | +++ (Gcase activation greater than 60%) | – | – | Cc1cc(-c2cncc(Cl)c2)nc2c(C(=O)N[C@@H](C)C3CC3)cnn12 [III-290] | –
– | – | *** (greater than 20% Gcase activation) | +++ (Gcase activation greater than 60%) | COc1cccc(-c2cc(C)n3ncc(C(=O)N[C@H](C)C(F)(F)F)c3n2)c1 [III-90] | –
– | – | *** (greater than 20% Gcase activation) | +++ (Gcase activation greater than 60%) | Cc1cc(-c2cccnc2F)nc2c(C(=O)N[C@H](C3CC3)C(F)(F)F)cnn12 [III-114] | –
*** (greater than 20% Gcase activation) | +++ (Gcase activation greater than 60%) | – | – | Cc1cc(-c2ccoc2F)nc2c(C(=O)N[C@H](C)C(F)(F)F)cnn12 [III-335] | –
– | – | *** (greater than 20% Gcase activation) | +++ (Gcase activation greater than 60%) | Cc1cc(-c2cncc(F)c2)nc2c(C(=O)NC(C3CC3)C(F)(F)F)cnn12 (centres unmarked) [III-125] | –
– | – | – | – | Cc1cc(-c2cccnc2)nc2c(C(=O)N[C@H]3CC[C@H](OCC(C)C)CC3)cnn12 [III-39] | Percent Gcase Activation, 0.1 μM Test Compound (0.1 μM test compound, Table 3A): ** (Gcase activation in the range of 10% up to 20%); Percent Gcase Activation, 1 μM Test Compound (1 μM test compound, Table 3A): +++ (Gcase activation greater than 60%)
*** (greater than 20% Gcase activation) | +++ (Gcase activation greater than 60%) | – | – | Cc1cc(-c2sccc2C#N)nc2c(C(=O)N[C@@H](C)C3CC3)cnn12 [III-301] | –
* (less than 10% Gcase activation) | +++ (Gcase activation greater than 60%) | – | – | Cc1cc(-c2cccc(C(=O)N(C)C)c2)nc2c(C(=O)NC(C3CC3)C(F)(F)F)cnn12 (centres unmarked) [III-413] | –
– | – | * (less than 10% Gcase activation) | + (less than 30% Gcase activation) | Cc1cc(N2CCCN(C(C)C)C2=O)nc2c(C(=O)NC(C)(C)C(F)(F)F)cnn12 [III-262] | –
*** (greater than 20% Gcase activation) | +++ (Gcase activation greater than 60%) | – | – | Cc1occc1-c1cc(C)n2ncc(C(=O)N[C@H](C)C(F)(F)F)c2n1 [III-340] | –
– | – | – | – | CCCO[C@H]1CC[C@H](NC(=O)c2cnn3c(C)cc(-c4cccnc4)nc23)CC1 [III-40] | Percent Gcase Activation, 0.1 μM Test Compound (0.1 μM test compound, Table 3A): * (less than 10% Gcase activation); Percent Gcase Activation, 1 μM Test Compound (1 μM test compound, Table 3A): + (less than 30% Gcase activation)
– | – | *** (greater than 20% Gcase activation) | +++ (Gcase activation greater than 60%) | Cc1cc(-c2cc(C)n3ncc(C(=O)N[C@@H](C4CC4)C(F)(F)F)c3n2)sn1 [III-216] | –
– | – | * (less than 10% Gcase activation) | + (less than 30% Gcase activation) | Cc1cc(-c2cccnc2)nc2c(C(=O)N[C@H](C)C3CC3)cnn12 [III-87] | –
– | – | *** (greater than 20% Gcase activation) | +++ (Gcase activation greater than 60%) | Cc1cnc(-c2cc(C)n3ncc(C(=O)NC(C4CC4)C(F)(F)F)c3n2)o1 (centres unmarked) [III-253] | –
*** (greater than 20% Gcase activation) | +++ (Gcase activation greater than 60%) | – | – | Cc1nscc1-c1cc(C)n2ncc(C(=O)N[C@H](C3CC3)C(F)(F)F)c2n1 [III-389] | –
– | – | *** (greater than 20% Gcase activation) | +++ (Gcase activation greater than 60%) | Cc1cc(-c2cccc(-c3ncon3)c2)nc2c(C(=O)NC(C3CC3)C(F)(F)F)cnn12 (centres unmarked) [III-176] | –
– | – | – | – | Cc1cc(C)n2ncc(C(=O)N[C@H](C)C3CCCCC3)c2n1 [III-3] | Percent Gcase Activation, 0.1 μM Test Compound (0.1 μM test compound, Table 3A): *** (greater than 20% Gcase activation); Percent Gcase Activation, 1 μM Test Compound (1 μM test compound, Table 3A): +++ (Gcase activation greater than 60%)
– | – | – | – | Cc1cc(C(F)(F)F)nc2c(C(=O)NC(C)(C)C3CC3)cnn12 [III-68] | Percent Gcase Activation, 0.1 μM Test Compound (0.1 μM test compound, Table 3A): * (less than 10% Gcase activation); Percent Gcase Activation, 1 μM Test Compound (1 μM test compound, Table 3A): + (less than 30% Gcase activation)
– | – | *** (greater than 20% Gcase activation) | +++ (Gcase activation greater than 60%) | Cc1cc(C)n2ncc(C(=O)NC(c3ccc(F)cc3)C(F)(F)F)c2n1 (centres unmarked) [III-184] | –
– | – | *** (greater than 20% Gcase activation) | +++ (Gcase activation greater than 60%) | COc1ccc(-c2cc(C)n3ncc(C(=O)NC(C)C(F)(F)F)c3n2)cn1 (centres unmarked) [III-271] | –
– | – | *** (greater than 20% Gcase activation) | +++ (Gcase activation greater than 60%) | Cc1ncc(-c2cc(C)n3ncc(C(=O)N[C@@H](C4CC4)C(F)(F)F)c3n2)o1 [III-248] | –
*** (greater than 20% Gcase activation) | +++ (Gcase activation greater than 60%) | – | – | Cc1cc(-c2cc(F)ccc2C#N)nc2c(C(=O)N[C@@H](C)C3CC3)cnn12 [III-396] | –

Structure (SMILES) | Percent Gcase Activation, 0.1 μM Test Compound (0.1 μM test compound) | Percent Gcase Activation, 1 μM Test Compound (1 μM test compound) | Percent Gcase Activation, 0.1 μM Test Compound (test compound at 0.1 μM) | Percent Gcase Activation, 1 μM Test Compound (test compound at 1.0 μM) | further results
Cc1cc(-c2ccc3c(c2)ncn3C)nc2c(C(=O)NC(C3CC3)C(F)(F)F)cnn12 (centres unmarked) [III-303] | ** (Gcase activation in the range of 10% up to 20%) | + (less than 30% Gcase activation) | – | – | –
Cc1nc(-c2cc(C)n3ncc(C(=O)NC(C)(C)C4CC4)c3n2)co1 [III-251] | – | – | ** (Gcase activation in the range of 10% up to 20%) | +++ (Gcase activation greater than 60%) | –
COc1ccc(F)c(-c2cc(C)n3ncc(C(=O)N[C@H](C)C(F)(F)F)c3n2)c1 [III-97] | – | – | ** (Gcase activation in the range of 10% up to 20%) | +++ (Gcase activation greater than 60%) | –
Cc1cc(-c2nnc(C(C)C)o2)nc2c(C(=O)N[C@@H](C3CC3)C(F)(F)F)cnn12 [III-392] | ** (Gcase activation in the range of 10% up to 20%) | +++ (Gcase activation greater than 60%) | – | – | –
Cc1cc(-c2cnccc2C(F)(F)F)nc2c(C(=O)NC(C)C(F)(F)F)cnn12 (centres unmarked) [III-284] | ** (Gcase activation in the range of 10% up to 20%) | +++ (Gcase activation greater than 60%) | – | – | –
Cc1cc(-c2ccc3nc[nH]c3c2)nc2c(C(=O)NC(C3CC3)C(F)(F)F)cnn12 (centres unmarked) [III-307] | *** (greater than 20% Gcase activation) | ++ (Gcase activation in the range of 30% up to 60%) | – | – | –
Cc1ncc(F)cc1-c1cc(C)n2ncc(C(=O)N[C@@H](C3CC3)C(F)(F)F)c2n1 [III-379] | ** (Gcase activation in the range of 10% up to 20%) | +++ (Gcase activation greater than 60%) | – | – | –
Cc1cc(-c2cc(C#N)ccc2F)nc2c(C(=O)N[C@H](C)C(F)(F)F)cnn12 [III-351] | ** (Gcase activation in the range of 10% up to 20%) | +++ (Gcase activation greater than 60%) | – | – | –
Cc1cc(-c2cccnc2C#N)nc2c(C(=O)N[C@H](C3CC3)C(F)(F)F)cnn12 [III-365] | ** (Gcase activation in the range of 10% up to 20%) | +++ (Gcase activation greater than 60%) | – | – | –
